Consider 3 molecules from patent US20020198208A1, “MEDICINAL PREPARATION AND PROCESS FOR MANUFACTURING THEREOF” (priority 2000, published 2002).

Like-named read-outs stand apart in the source and are kept apart here.

For data set [1] the following is noted: cited from earlier work.
The conditions of data set [2]: prior-art preparations, powder; cited from earlier work.
Data set [3] in a line: Clinical course of Patient I. (prostatic adenoma). The format is in vivo, human. As to the method: Patient one.
Was hospitalized with complaints of difficult urination and urges to urinate.
Diagnosis: stage 1I prostatic adenoma.
Two courses of therapy with […] sodium salt dihydrate were performed by injections for 20 and 15 injections, respectively, with a 30-day interval between the injections. Doses of the preparation were from 100 to 500 mg in 1-5 ml of distilled water correspondingly.

Data set [4] deals with macrophages. To be noted: cited from earlier work.
The subject of data set [5] is macrophages. The following applies: patients with impaired cellular immunity.
The conditions of data set [6]: doses 20-1500 mg.
In data set [7] the test system is macrophages. To be noted: inflammatory diseases.
The conditions of data set [8]: Patient S., after therapy (300 mg injection 5 days, then 100 mg perorally 2 times a day).
The conditions of data set [9]: Patient G. As to the method:
Patient two.
Was hospitalized with diagnosis of erysipelas of the left forearm, edema, and exacerbation of psoriasis (temperature at hospitalization was 39.9° C.).
Tameril was injected daily in a single dose of 200 mg in 2 ml water.

For data set [10] the following is noted: Patient S., after therapy (300 mg injection 5 days, then 100 mg perorally 2 times a day). The source holds these as a separate data set.
For data set [11] the following is noted: Patient S.
Setting [12] is: erysipelas and psoriasis, after therapy (200 mg injection daily, then 100 mg for 5 days).

With `Nc1cccc2c(=O)[nH][nH]c(=O)c12` [luminol, 5-amino-2,3-dihydrophthalazine-1,4-dione], the medical effectiveness result in [1] (in vivo) was “medically ineffective”.

As for `Nn1[nH]c(=O)c2ccccc2c1=O.O.O.[Na]` [2-amino, 2-amino-1,2,3,4-tetrahydrophthalazine-1,4-dione sodium salt dihydrate], in data set [2], the solubility in water result was “easily soluble in water”. For the same molecule, the size of adenoma entry in [3] (after the first course of 20 injections) is listed as “decreased”; in data set [3] (after the second course of 15 injections), “remained without further positive dynamic”. For the same molecule, the effect on macrophages result with macrophages [4] (inflammatory processes) was “inactivates macrophages for several hours”; in the data set with macrophages [4] (patients with impaired cellular immunity, e.g. malignant neoplasms), “activates macrophages, interleukins and other acute-phase proteins”. Besides, in [1] (in vivo), the “side effects and allergic reactions” value is “does not cause side effects and allergic reactions”. Moreover, the “effect of longterm treatment” value in data set [1] (patients with chronic and other diseases) is “causes tolerance and decreases the efficiency of therapy”.

Turning to `Nc1cccc2c(=O)[nH][nH]c(=O)c12.[Na]` [Tamerit, 5-amino-2,3-dihydrophthalazine-1,4-dione sodium salt], in the data set on macrophages [5], the “effect on T-lymphocytes” value is listed as “initiates specific reactions of T-lymphocytes”. For the same molecule, the effect on macrophages result with macrophages [5] (e.g. malignant neoplasms, evident by release of TNF, interleukins, other acute-phase proteins) is “causes activation of macrophages”. Also, the “side effects and allergic reactions” value in data set [6] was “does not cause side effects and allergic reactions”. Besides, in the data set on macrophages [7], the “contents of TNF and acute-phase proteins” value is “decreasing the contents of TNF and acute-phase proteins”; the “function of neutrophilic granulocytes” value is “enhances super-oxidizing function and phagocytic activity of neutrophilic granulocytes”. Besides, in data set [8], the B-lymphocytes stood at 24.5%, the “Immunoglobulin A” value stood at 2.20 g/L, the “Immunoglobulin G” value came out at 12.4 g/L and the “Immunoglobulin M” value was determined as 2.21 g/L. In [8], this molecule gave a Latex phagocytosis of 76.2%, a T-helpers of 29.5%, a T-lymphocytes of 67.0% and a T-suppressors of 23.5%. Also, in data set [8], the TNF is 22.5. Moreover, in data set [3] (10 daily injections of 200 mg after the 2-amino courses), the “state of the patient (urination)” value was “urination was normalized”. In addition, the “time to disappearance of edema and hyperemia of the left forelimb” value in data set [9] (200 mg injected daily) was 4 days. Also, the “state of the patient” value in data set [9] (after 200 mg daily then 100 mg injections for 5 days) is reported as “satisfactory state”. Also, in data set [9] (setting [12]), the B-lymphocytes is listed as 25.0%, the ESR amounted to 16.0 mm/h, the Eosinophils was 4.0% and the Erythrocytes turned out to be 6.9e+12 L⁻¹. Further, in [9] (setting [12]), the Hemoglobin turned out to be 148 g/L, the “Immunoglobulin A” value turned out to be 2.47 g/L, the “Immunoglobulin G” value is 13.7 g/L and the “Immunoglobulin M” value worked out at 2.31 g/L. In [9] (setting [12]), this molecule gave a Latex phagocytosis of 83.4%, a Leukocytes of 6.2e+09 L⁻¹, a Lymphocytes of 26.3% and a Monocytes of 2.0%. In data set [9] (setting [12]), the “Neutrophils: Segmented” value was 65.5%, the “Neutrophils: Stab” value is 5.7%, the T-helpers is on record as 31.2% and the T-lymphocytes was determined as 60.3%. Besides, in [9] (setting [12]), the T-suppressors is 20.1% and the TNF was determined as 24.4. In addition, in [10], the ESR is given as 13.0 mm/h, the Eosinophils came out at 3.0%, the Erythrocytes stood at 5e+12 L⁻¹ and the Hemoglobin turned out to be 147 g/L. Moreover, in data set [10], the Leukocytes was 5.5e+09 L⁻¹, the Lymphocytes was 23.0%, the Monocytes is reported as 6.0% and the “Neutrophils: Segmented” value amounted to 74.0%. Besides, the “Neutrophils: Stab” value in data set [10] was 6.0%. Besides, the “state of the patient” value in [11] (10 days after beginning of the therapy) is on record as “satisfactory state”. Besides, the “state of the patient (cough, temperature)” value in data set [11] (three days after beginning of the therapy) was “cough disappeared, and temperature returned to normal”.
